Results from ChEMBL document CHEMBL1201862, “PubChem BioAssay data set” (2004).
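Five compound concentrations were applied to cells in 96-well plates for 48 hours; endpoints were derived by simple linear interpolation of the resulting dose-response curve. Abbreviation: GI50, concentration required for 50% inhibition of growth.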 Calls of active or inactive are those of the source. Cut-off read from the data, not from the text of the source: active = GI50 up to about 1.1 µM and inactive = higher.

Columns and labels:
Experiment in all cases: inhibition of tumour cell growth, NCI panel, 48 h
NCI/ADR-RES = test system: NCI/ADR-RES
SK-MEL-28 = test system: SK-MEL-28
MOLT-4 = test system: MOLT-4
CCRF-CEM = test system: CCRF-CEM
HT-29 = test system: HT-29
IGROV-1 = test system: IGROV-1
OVCAR-3 = test system: OVCAR-3
OVCAR-5 = test system: OVCAR-5
UACC-62 = test system: UACC-62
COLO 205 = test system: COLO 205
SF-268 = test system: SF-268
MCF7 = test system: MCF7
HL-60 = test system: HL-60
PC-3 = test system: PC-3
SK-MEL-2 = test system: SK-MEL-2
MDA-MB-435 = test system: MDA-MB-435
BT-549 = test system: BT-549
786-0 = test system: 786-0
ACHN = test system: ACHN
NCI-H23 = test system: NCI-H23
HCC 2998 = test system: HCC 2998
NCI-H226 = test system: NCI-H226
A549 = test system: A549
SF-295 = test system: SF-295
Hs-578T = test system: Hs-578T
A498 = test system: A498
HOP-92 = test system: HOP-92
SK-OV-3 = test system: SK-OV-3
TK-10 = test system: TK-10
SW-620 = test system: SW-620
OVCAR-8 = test system: OVCAR-8
SNB-75 = test system: SNB-75
HOP-62 = test system: HOP-62
HCT-15 = test system: HCT-15
KM12 = test system: KM12
K562 = test system: K562
UACC-257 = test system: UACC-257
HCT-116 = test system: HCT-116
SF-539 = test system: SF-539
UO-31 = test system: UO-31
LOX IMVI = test system: LOX IMVI
NCI-H522 = test system: NCI-H522
EKVX = test system: EKVX
RXF 393 = test system: RXF 393
SR = test system: SR
Malme-3M = test system: Malme-3M
DU-145 = test system: DU-145
CAKI-1 = test system: CAKI-1
M14 = test system: M14
MDA-N = test system: MDA-N
SN12C = test system: SN12C
SNB-19 = test system: SNB-19
T47D = test system: T47D
U-251 = test system: U-251
SK-MEL-5 = test system: SK-MEL-5
OVCAR-4 = test system: OVCAR-4
MDA-MB-231 = test system: MDA-MB-231
NCI-H460 = test system: NCI-H460

Cc1nc(Nc2nc3ccccc3[nH]2)[nH]c(=O)c1CCO
GI50 (NCI/ADR-RES): > 100 µM (inactive)
GI50 (SK-MEL-28): > 100 µM (inactive)
GI50 (MOLT-4): > 100 µM (inactive)
GI50 (CCRF-CEM): > 69 µM (inactive)
GI50 (HT-29): > 100 µM (inactive)
GI50 (IGROV-1): 12.3 µM (inactive)
GI50 (OVCAR-3): > 100 µM (inactive)
GI50 (OVCAR-5): > 86.9 µM (inactive)
GI50 (UACC-62): 68.9 µM (inactive)
GI50 (COLO 205): > 59.8 µM (inactive)
GI50 (SF-268): > 96.6 µM (inactive)
GI50 (MCF7): > 100 µM (inactive)
GI50 (HL-60): 75.9 µM (inactive)
GI50 (PC-3): > 100 µM (inactive)
GI50 (SK-MEL-2): 37.2 µM (inactive)
GI50 (MDA-MB-435): > 100 µM (inactive)
GI50 (BT-549): > 100 µM (inactive)
GI50 (786-0): 65.6 µM (inactive)
GI50 (ACHN): 50.9 µM (inactive)
GI50 (NCI-H23): 98.6 µM (inactive)
GI50 (HCC 2998): > 100 µM (inactive)
GI50 (NCI-H226): 26.6 µM (inactive)
GI50 (A549): > 100 µM (inactive)
GI50 (SF-295): > 100 µM (inactive)
GI50 (Hs-578T): 20.6 µM (inactive)
GI50 (A498): > 100 µM (inactive)
GI50 (HOP-92): 55.3 µM (inactive)
GI50 (SK-OV-3): 38.3 µM (inactive)
GI50 (TK-10): 39.4 µM (inactive)
GI50 (SW-620): 99.8 µM (inactive)
GI50 (OVCAR-8): > 53.2 µM (inactive)
GI50 (SNB-75): > 100 µM (inactive)
GI50 (HOP-62): > 100 µM (inactive)
GI50 (HCT-15): 61.9 µM
GI50 (KM12): > 100 µM (inactive)
GI50 (K562): > 100 µM (inactive)
GI50 (UACC-257): 45.8 µM (inactive)
GI50 (HCT-116): 77.6 µM (inactive)
GI50 (SF-539): 39.9 µM (inactive)
GI50 (UO-31): 46.8 µM (inactive)
GI50 (LOX IMVI): 44.8 µM (inactive)
GI50 (NCI-H522): > 100 µM (inactive)
GI50 (EKVX): > 100 µM (inactive)
GI50 (RXF 393): 21.7 µM (inactive)
GI50 (SR): 30.9 µM (inactive)
GI50 (Malme-3M): 25.6 µM (inactive)
GI50 (DU-145): 61.7 µM (inactive)
GI50 (CAKI-1): 53.5 µM (inactive)
GI50 (M14): 27.2 µM (inactive)
GI50 (MDA-N): > 92 µM (inactive)
GI50 (SN12C): > 91.6 µM (inactive)
GI50 (SNB-19): > 100 µM (inactive)
GI50 (T47D): 7.6 µM (inactive)
GI50 (U-251): 59.8 µM (inactive)
GI50 (SK-MEL-5): 70.3 µM (inactive)
GI50 (OVCAR-4): > 100 µM (inactive)
GI50 (MDA-MB-231): 27.4 µM (inactive)
GI50 (NCI-H460): 34.6 µM (inactive)
